Columns and labels:
Test in all cases: relative viability (nuclei count vs DMSO), 5 days (fraction); higher = more cells survive
NCI-H3122 = tested on: NCI-H3122
Method in brief: (§1)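 Relative viability is defined as nuclei in treated wells over nuclei in vehicle wells. Duplicate plates were run and medians reported. Lung cancer cell lines in 1536-well plates were dosed by pin tool one day after seeding, with one drug or with a fixed anchor-drug dose plus five library-drug doses (not always all listed) in √10 steps, and nuclei were counted after 5 days.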

NCI-H1355 = tested on: NCI-H1355
Method in brief: as §1

NCI-H1734 = tested on: NCI-H1734
Method in brief: as §1

NCI-H2085 = tested on: NCI-H2085
Method in brief: as §1

HCC-366 = tested on: HCC-366
Method in brief: as §1

ABC-1 = tested on: ABC-1
Method in brief: as §1

NCI-H2228 = tested on: NCI-H2228
Method in brief: as §1

ChaGo-K-1 = tested on: ChaGo-K-1
Method in brief: as §1

EPLC-272H = tested on: EPLC-272H
Method in brief: as §1

NCI-H1944 = tested on: NCI-H1944
Method in brief: as §1

SW 1573 = tested on: SW 1573
Method in brief: as §1

NCI-H2009 = tested on: NCI-H2009
Method in brief: as §1

NCI-H2023 = tested on: NCI-H2023
Method in brief: as §1

NCI-H2347 = tested on: NCI-H2347
Method in brief: as §1

HCC-15 = tested on: HCC-15
Method in brief: as §1

HCC-44 = tested on: HCC-44
Method in brief: as §1

LCLC-103H = tested on: LCLC-103H
Method in brief: as §1

COR-L23 = tested on: COR-L23
Method in brief: as §1

HCC-827 = tested on: HCC-827
Method in brief: as §1

PC-14 = tested on: PC-14
Method in brief: as §1

NCI-H2405 = tested on: NCI-H2405
Method in brief: as §1

NCI-H1793 = tested on: NCI-H1793
Method in brief: as §1

**Q.** Which results are given for `Cc1cn(-c2cc(NC(=O)c3ccc(C)c(Nc4nccc(-c5cccnc5)n4)c3)cc(C(F)(F)F)c2)cn1` [Nilotinib] + O=C(c1cc(Cc2n[nH]c(=O)c3ccccc23)ccc1F)N1CCN(C(=O)C2CC2)CC1 [Olaparib] (partner 8 µM)?
**A.** relative viability (NCI-H3122; first compound 0.001 µM): 0.591; relative viability (NCI-H3122; first compound 0.003162 µM): 0.688; relative viability (NCI-H3122; first compound 0.01 µM): 0.848; relative viability (NCI-H3122; first compound 0.03162 µM): 0.515; relative viability (NCI-H3122; first compound 0.1 µM): 0.721; relative viability (NCI-H1355; first compound 0.001 µM): 0.748; relative viability (NCI-H1355; first compound 0.003162 µM): 0.816; relative viability (NCI-H1355; first compound 0.01 µM): 0.737; relative viability (NCI-H1355; first compound 0.03162 µM): 0.785; relative viability (NCI-H1355; first compound 0.1 µM): 0.763; relative viability (NCI-H1734; first compound 0.001 µM): 0.576; relative viability (NCI-H1734; first compound 0.003162 µM): 0.656; relative viability (NCI-H1734; first compound 0.01 µM): 0.689; relative viability (NCI-H1734; first compound 0.03162 µM): 0.543; relative viability (NCI-H1734; first compound 0.1 µM): 0.497; relative viability (NCI-H2085; first compound 0.001 µM): 0.747; relative viability (NCI-H2085; first compound 0.003162 µM): 0.834; relative viability (NCI-H2085; first compound 0.01 µM): 0.797; relative viability (NCI-H2085; first compound 0.03162 µM): 0.889; relative viability (NCI-H2085; first compound 0.1 µM): 0.684; relative viability (HCC-366; first compound 0.001 µM): 0.272; relative viability (HCC-366; first compound 0.003162 µM): 0.327; relative viability (HCC-366; first compound 0.01 µM): 0.339; relative viability (HCC-366; first compound 0.03162 µM): 0.281; relative viability (HCC-366; first compound 0.1 µM): 0.281; relative viability (ABC-1; first compound 0.001 µM): 0.671; relative viability (ABC-1; first compound 0.003162 µM): 0.873; relative viability (ABC-1; first compound 0.01 µM): 0.778; relative viability (ABC-1; first compound 0.03162 µM): 0.828; relative viability (ABC-1; first compound 0.1 µM): 0.673; relative viability (NCI-H2228; first compound 0.001 µM): 0.459; relative viability (NCI-H2228; first compound 0.003162 µM): 0.584; relative viability (NCI-H2228; first compound 0.01 µM): 0.76; relative viability (NCI-H2228; first compound 0.03162 µM): 0.384; relative viability (NCI-H2228; first compound 0.1 µM): 0.835; relative viability (ChaGo-K-1; first compound 0.001 µM): 0.419; relative viability (ChaGo-K-1; first compound 0.003162 µM): 0.476; relative viability (ChaGo-K-1; first compound 0.01 µM): 0.478; relative viability (ChaGo-K-1; first compound 0.03162 µM): 0.464; relative viability (ChaGo-K-1; first compound 0.1 µM): 0.412; relative viability (EPLC-272H; first compound 0.001 µM): 0.605; relative viability (EPLC-272H; first compound 0.003162 µM): 0.746; relative viability (EPLC-272H; first compound 0.01 µM): 0.696; relative viability (EPLC-272H; first compound 0.03162 µM): 0.448; relative viability (EPLC-272H; first compound 0.1 µM): 0.513; relative viability (NCI-H1944; first compound 0.001 µM): 0.379; relative viability (NCI-H1944; first compound 0.003162 µM): 0.397; relative viability (NCI-H1944; first compound 0.01 µM): 0.462; relative viability (NCI-H1944; first compound 0.03162 µM): 0.435; relative viability (NCI-H1944; first compound 0.1 µM): 0.45; relative viability (SW 1573; first compound 0.001 µM): 0.494; relative viability (SW 1573; first compound 0.003162 µM): 0.614; relative viability (SW 1573; first compound 0.01 µM): 0.662; relative viability (SW 1573; first compound 0.03162 µM): 0.364; relative viability (SW 1573; first compound 0.1 µM): 0.423; relative viability (NCI-H2009; first compound 0.001 µM): 0.588; relative viability (NCI-H2009; first compound 0.003162 µM): 0.667; relative viability (NCI-H2009; first compound 0.01 µM): 0.621; relative viability (NCI-H2009; first compound 0.03162 µM): 0.599; relative viability (NCI-H2009; first compound 0.1 µM): 0.9; relative viability (NCI-H2023; first compound 0.001 µM): 0.429; relative viability (NCI-H2023; first compound 0.003162 µM): 0.486; relative viability (NCI-H2023; first compound 0.01 µM): 0.599; relative viability (NCI-H2023; first compound 0.03162 µM): 0.361; relative viability (NCI-H2023; first compound 0.1 µM): 0.394; relative viability (NCI-H2347; first compound 0.001 µM): 0.559; relative viability (NCI-H2347; first compound 0.003162 µM): 0.664; relative viability (NCI-H2347; first compound 0.01 µM): 0.633; relative viability (NCI-H2347; first compound 0.03162 µM): 0.57; relative viability (NCI-H2347; first compound 0.1 µM): 0.493; relative viability (HCC-15; first compound 0.001 µM): 0.612; relative viability (HCC-15; first compound 0.003162 µM): 0.778; relative viability (HCC-15; first compound 0.01 µM): 0.734; relative viability (HCC-15; first compound 0.03162 µM): 0.692; relative viability (HCC-15; first compound 0.1 µM): 0.638; relative viability (HCC-44; first compound 0.001 µM): 0.895; relative viability (HCC-44; first compound 0.003162 µM): 0.97; relative viability (HCC-44; first compound 0.01 µM): 0.976; relative viability (HCC-44; first compound 0.1 µM): 0.983; relative viability (LCLC-103H; first compound 0.001 µM): 0.761; relative viability (LCLC-103H; first compound 0.003162 µM): 0.903; relative viability (LCLC-103H; first compound 0.01 µM): 0.969; relative viability (LCLC-103H; first compound 0.03162 µM): 0.749; relative viability (LCLC-103H; first compound 0.1 µM): 0.8; relative viability (COR-L23; first compound 0.001 µM): 0.356; relative viability (COR-L23; first compound 0.003162 µM): 0.319; relative viability (COR-L23; first compound 0.01 µM): 0.396; relative viability (COR-L23; first compound 0.03162 µM): 0.306; relative viability (COR-L23; first compound 0.1 µM): 0.288; relative viability (HCC-827; first compound 0.001 µM): 0.637; relative viability (HCC-827; first compound 0.003162 µM): 0.741; relative viability (HCC-827; first compound 0.03162 µM): 0.49; relative viability (HCC-827; first compound 0.1 µM): 0.689; relative viability (PC-14; first compound 0.001 µM): 0.266; relative viability (PC-14; first compound 0.003162 µM): 0.253; relative viability (PC-14; first compound 0.01 µM): 0.264; relative viability (PC-14; first compound 0.03162 µM): 0.264; relative viability (PC-14; first compound 0.1 µM): 0.339; relative viability (NCI-H2405; first compound 0.001 µM): 0.837; relative viability (NCI-H2405; first compound 0.003162 µM): 0.878; relative viability (NCI-H2405; first compound 0.01 µM): 0.858; relative viability (NCI-H2405; first compound 0.03162 µM): 0.728; relative viability (NCI-H2405; first compound 0.1 µM): 0.629; relative viability (NCI-H1793; first compound 0.001 µM): 0.863; relative viability (NCI-H1793; first compound 0.003162 µM): 0.822; relative viability (NCI-H1793; first compound 0.01 µM): 1.13; relative viability (NCI-H1793; first compound 0.03162 µM): 0.706; relative viability (NCI-H1793; first compound 0.1 µM): 0.677
